For one assay, the system named is IL-2. The assay can be described thus: Inhibition of IL-2 production (Jurkat cells activated with PHA, ELISA). The class given is cell-based. As to conditions: Homo sapiens, Jurkat, Jurkat/PHA/1% FBS; activity class. As to the method: Jurkat cells were placed in a 96 well plate (0.5 million cells per well in 1% FBS medium), and then a test compound of this invention was added at different concentrations. After 10 minutes, the cells were activated with PHA (final concentration 2.5 μg/mL) and incubated for 20 hours at 37° C. under 5% CO2. The final volume was 200 μL. Following incubation, the cells were centrifuged, and the supernatants collected and stored at −70° C. prior to assaying for IL-2 production. A commercial ELISA kit (IL-2 Eli-pair, Diaclone Research, Besancon, France) was used to detect production of IL-2, from which dose response curves were obtained. The IC50 value was calculated as the concentration at which 50% of maximum IL-2 production after stimulation was inhibited versus a non-stimulation control.
A general note: An ELISA detects its analyte on a solid surface through an enzyme-linked reagent.

In another assay the target is T1, CRACM1/STIM1-CHOK1 (Homo sapiens, UniProt Q96D31).
T1 construct: Full length human Stim1, CracM1, CracM2 and CracM3 cDNA; Stim1 induced with doxycycline
The assay can be described thus: Patch clamp inhibition of ICRAC current in CRACM1/STIM1-CHOK1 cells. Format: cell-based. As to conditions: at 500 nM, activity class. How it is done:
Manual patch clamp experiments are conducted in the tight-seal whole-cell configuration at room temperature (21-25° C.). Patch pipettes are fashioned from borosilicate glass capillary tubes and have resistances between 2-4 MO after filling with standard intracellular solution. High resolution current recordings are acquired with a computer-based patch clamp amplifier system (EPC-10, HEKA, Lambrecht, Germany). All voltages are corrected for a liquid junction potential of 10 mV between external and internal solutions with glutamate as the intracellular anion. Currents are filtered at 2.9 kHz and digitized at 10 μs intervals. Capacitive currents and series resistance are determined and corrected before each voltage ramp using the automatic capacitance compensation of the EPC-10.
In general, a whole cell patch clamp method is used to examine the effects of a compound of the invention on a channel(s) that mediates ICRAC. In such experiments, a baseline ICRAC measurement is established within the first 70 voltage ramps, or 140 seconds, for a patched cell. Then the cells are perfused with the compound to be tested and the effect of the compound on ICRAC is measured for at least an additional 440 to 500 seconds. A compound that modulates ICRAC (e.g., inhibits) is a compound that is useful in the invention for modulating CRAC ion channel activity.
Each compound is diluted from a 10 mM stock in series using DMSO. The final DMSO concentration is always kept at 0.1%.
ICRAC currents are measured using 50 msec voltage ramps between −100 mV to +100 mV. The voltage ramps are stimulated every 2 seconds for the first 70 sweeps, then every 5 seconds for the remainder of the experiment. The membrane potential is held at 0 mV between the test ramps. In a typical experiment, the peak inward currents will develop within 50-100 seconds. Once the ICRAC current is stabilized, the cells are perfused with a test compound in the extracellular solution for at least an additional 500 seconds.
Off-line analysis with the Heka PatchMaster software is used to separate the ICRAC membrane current from the cells basal background currents. In a typical recording, InsP3 stimulated ICRAC currents begin to develop in 6 to 12 seconds after whole cell is established. Therefore, the first 1-4 voltage ramps represent the basal membrane currents in the absence of ICRAC and the average value is subtracted from all subsequent traces. The current value at −80 mV for each ramp trace is then measured and plotted against time. The resulting current versus time data is exported into a Microsoft Excel spreadsheet. The % ICRAC inhibition in each cell is calculated by comparing the amount of current just prior to the compound perfusion to the amount of current after the cells has been perfused with the compound for 440-500 seconds. The IC50 value and Hill coefficient for each compound is estimated by fitting all the individual data points to a single-site Hill equation.
TREx™-CHO cells were transfected with human Stim1 (recombinant DNA in pcDNA4/TO/myc-His™ A with a myc epitope tag in the N-terminal) and either CracM1, CracM2 or CracM3 (recombinant DNA in pcDNA 3.1 with a HA epitope tag in the N-terminal). Stably expressing cells were selected by growing the transfected cells in antibiotics for two to three weeks. Individual cell clones were isolated via serial dilution. […]
On the technique in general: The patch-clamp technique gives a direct electrical read-out from membranes.

The term IC50 denotes the point on the concentration scale where inhibition reaches its midpoint. Read a high IC50 as lower potency. Broadly, the inhibition is the relative decrease from the control value, in per cent. High values mean a strong effect, low ones a weak effect.

T1 sequence (Q96D31 whole entry): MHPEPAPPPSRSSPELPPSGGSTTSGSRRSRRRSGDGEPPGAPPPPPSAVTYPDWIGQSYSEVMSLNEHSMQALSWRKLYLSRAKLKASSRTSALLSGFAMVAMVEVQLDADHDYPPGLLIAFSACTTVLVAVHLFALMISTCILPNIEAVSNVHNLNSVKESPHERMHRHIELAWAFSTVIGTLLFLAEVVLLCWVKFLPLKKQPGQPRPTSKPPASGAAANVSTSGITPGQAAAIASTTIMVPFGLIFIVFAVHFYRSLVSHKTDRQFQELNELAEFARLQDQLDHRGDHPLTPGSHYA

Turning to `CC1=C(c2cnc(NC(=O)c3c(F)cccc3F)cn2)CN(c2nc(C)cs2)CC1` [Compound 1, 2,6-difluoro-N-(5-(4-methyl-1-(4-methylthiazol-2-yl)-1,2,5,6-tetrahydropyridin-3-yl)pyrazin-2-yl)benzamide], the IC50 in the assay with IL-2 fell in the range of 50 to 100 nM. Besides, the inhibition at 0.5 µM against CRACM1/STIM1-CHOK1 was 70 to 100%.
The like results for `CC1=C(c2cnc(NC(=O)c3c(F)cccc3F)cn2)CN(S(=O)(=O)N(C)C)CC1` [Compound 2] were, in that order, over 100 nM and 70 to 100%.
In the assay on IL-2, `CC1=C(c2ccc(NC(=O)c3cccc(F)c3F)cc2)CN(c2nccs2)CC1` [Compound 11, 2,3-difluoro-N-(4-(4-methyl-1-(thiazol-2-yl)-1,2,5,6-tetrahydropyridin-3-yl)phenyl)benzamide] showed a half-inhibitory concentration (IC50) of under 50 nM. The inhibition at 0.5 µM against CRACM1/STIM1-CHOK1 is 70 to 100%.
`CC1=C(c2ccc(NC(=O)c3ccncc3C)cc2)CN(c2nccnc2Cl)CC1` [Compound 14, N-(4-(1-(3-chloropyrazin-2-yl)-4-methyl-1,2,5,6-tetrahydropyridin-3-yl)phenyl)-3-methylisonicotinamide] registered an IC50 in the assay on IL-2 of under 50 nM. Besides, the inhibition at 0.5 µM at CRACM1/STIM1-CHOK1 was in the range of 50 to 70%.
The like results for `CC1=C(c2ccc(NC(=O)c3ccncc3F)cc2)CN(c2nccnc2Cl)CC1` [Compound 15, N-(4-(1-(3-chloropyrazin-2-yl)-4-methyl-1,2,5,6-tetrahydropyridin-3-yl)phenyl)-3-fluoroisonicotinamide] were, in that order, under 50 nM and 50 to 70%.

These data come from patent US20120183579A1, “COMPOUNDS FOR INFLAMMATION AND IMMUNE-RELATED USES” (Synta Pharmaceuticals Corp., priority 2008, published 2012).
